# Source: patent US20080207708A1, “Oxazole and Thiazole Compounds and Their Use in the Treatment of Pge2 Mediated Disorders” (GLAXO GROUP LIMITED, priority 2005, published 2008)
# Biological target: T1, EP1 receptors (Homo sapiens, UniProt P34995)
# T1 sequence (P34995 1-402): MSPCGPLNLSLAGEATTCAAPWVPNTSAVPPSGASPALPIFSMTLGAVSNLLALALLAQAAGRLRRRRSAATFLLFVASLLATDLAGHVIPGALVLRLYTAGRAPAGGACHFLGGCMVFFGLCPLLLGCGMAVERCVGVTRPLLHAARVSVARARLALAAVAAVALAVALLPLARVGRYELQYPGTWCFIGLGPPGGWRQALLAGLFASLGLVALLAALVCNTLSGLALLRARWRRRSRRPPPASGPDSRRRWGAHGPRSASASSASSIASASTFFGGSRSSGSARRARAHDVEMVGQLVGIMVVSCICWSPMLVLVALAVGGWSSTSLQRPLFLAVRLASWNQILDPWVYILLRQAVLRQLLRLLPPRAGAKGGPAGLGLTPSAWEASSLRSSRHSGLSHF
# Assay: Binding assay for the human prostanoid EP1 receptor (competition with [3H]-PGE2)
# Design: expressed in transfected cells; host or cells: CHO-K1 cells, membrane fraction
# Conditions: [3H]-PGE2 competition; averages of a number of experiments; read-out: pIC50 value, binding assay for the human prostanoid EP1 receptor (converted)
# Experimental: Competition assay using [^3H]-PGE2.
# Compound potencies are determined using a radioligand binding assay. In this assay compound potencies are determined from their ability to compete with tritiated prostaglandin E2 ([^3H]-PGE2) for binding to the human EP1 receptor.
# This assay utilises Chinese hamster ovary-K1 (CHO-K1) cells into which a stable vector containing the EP1 cDNA has previously been transfected. Cells are cultured in suitable flasks containing culture medium such as DMEM:F-12 supplemented with 10% v/v foetal calf serum, 2 mM L-glutamine, 0.25 mg/ml geneticin, 10 μg/ml puromycin and 10 μM indomethacin.
# Cells are detached from the culture flasks by incubation in calcium and magnesium free phosphate buffered saline containing 1 mM disodium ethylenediaminetetraacetic acid (Na2EDTA) and 10 μM indomethacin for 5 min. The cells are isolated by centrifugation at 250×g for 5mins and suspended in an ice cold buffer such as 50 mM Tris, 1 mM Na2EDTA, 140 mM NaCl, 10 μM indomethacin (pH 7.4). The cells are homogenised using a Polytron tissue disrupter (2×10 s burst at full setting), centrifuged at 48,000×g for 20mins and the pellet containing the membrane fraction is washed (optional) three times by suspension and centrifugation at 48,000×g for 20mins. The final membrane pellet is suspended in an assay buffer such as 10 mM 2-[N-morpholino]ethanesulphonic acid, 1 mM Na2EDTA, 10 mM MgCl2 (pH 6). Aliquots are frozen at […] until required.
# For the binding assay the cell membranes, competing compounds and [^3H]-PGE2 (3 nM final assay concentration) are incubated in a final volume of 100 μl for 30 min at 30° C. All reagents are prepared in assay buffer. Reactions are terminated by rapid vacuum filtration over GF/B filters using a Brandell cell harvester. The filters are washed with ice cold assay buffer, dried and the radioactivity retained on the filters is measured by liquid scintillation counting in Packard TopCount scintillation counter.
# The data are analysed using non linear curve fitting techniques to determine the concentration of compound producing 50% inhibition of specific binding (IC50).
row,IC50 [nM],Compound
1,≤ 1000,"NC(=O)c1nc(Cc2cc(Cl)ccc2OCc2ccc(F)cc2F)cs1 [Example 1, 4-[(5-chloro-2-{[(2,4-difluorophenyl)methyl]oxy}phenyl)methyl]-1,3-thiazole-2-carboxamide]"
2,≤ 1000,"NC(=O)c1nc(Cc2cc(Cl)ccc2OCc2ccccc2F)cs1 [Example 2, 4-[(5-chloro-2-{[(2-fluorophenyl)methyl]oxy}phenyl)methyl]-1,3-thiazole-2-carboxamide]"
3,≤ 1000,"NC(=O)c1nc(Cc2cc(Cl)ccc2OCc2ccccc2Cl)cs1 [Example 3, 4-[(5-chloro-2-{[(2-chlorophenyl)methyl]oxy}phenyl)methyl]-1,3-thiazole-2-carboxamide]"
4,≤ 1000,"NC(=O)c1nc(Cc2cc(Cl)ccc2OCc2c(F)cc(F)cc2F)cs1 [Example 4, 4-[(5-chloro-2-{[(2,4,6-trifluorophenyl)methyl]oxy}phenyl)methyl]-1,3-thiazole-2-carboxamide]"
5,≤ 1000,"NC(=O)c1nc(Cc2cc(Cl)ccc2OCc2ccc(Cl)cc2)cs1 [Example 5, 4-[(5-chloro-2-{[(4-chlorophenyl)methyl]oxy}phenyl)methyl]-1,3-thiazole-2-carboxamide]"
6,≤ 1000,"NC(=O)c1nc(Cc2cc(Cl)ccc2OCc2ccc(F)cc2Cl)cs1 [Example 6, 4-[(5-chloro-2-{[(2-chloro-4-fluorophenyl)methyl]oxy}phenyl)methyl]-1,3-thiazole-2-carboxamide]"
7,> 1000,"NC(=O)c1nc(Cc2cc(Cl)ccc2OCc2c(F)ccc(F)c2F)cs1 [Example 7, 4-[(5-chloro-2-{[(2,3,6-trifluorophenyl)methyl]-oxy}phenyl)methyl]-1,3-thiazole-2-carboxamide]"
8,≤ 1000,"NC(=O)c1nc(Cc2cc(Cl)ccc2OCc2cc(F)c(F)cc2F)cs1 [Example 8, 4-[(5-chloro-2-{[(2,4,5-trifluorophenyl)methyl]oxy}phenyl)methyl]-1,3-thiazole-2-carboxamide]"
9,≤ 31.6,"O=C(O)c1csc(Cc2cc(Cl)ccc2OCc2ccccc2)n1 [Example 9, 2-({5-chloro-2-[(phenylmethyl)oxy]phenyl}methyl)-1,3-thiazole-4-carboxylicacid]"
10,≤ 31.6,"O=C(O)c1csc(Cc2cc(Cl)ccc2OCc2ccccc2F)n1 [Example 10, 2-[(5-chloro-2-{[(2-fluorophenyl)methyl]oxy}phenyl)methyl]-1,3-thiazole-4-carboxylicacid]"
11,≤ 31.6,"O=C(O)c1csc(Cc2cc(Cl)ccc2OCc2ccc(Cl)cc2)n1 [Example 11, 2-[(5-chloro-2-{[(4-chlorophenyl)methyl]oxy}phenyl)methyl]-1,3-thiazole-4-carboxylicacid]"
12,≤ 31.6,"O=C(O)c1csc(Cc2cc(Cl)ccc2OCc2ccc(F)cc2)n1 [Example 12, 2-[(5-chloro-2-{[(4-fluorophenyl)methyl]oxy}phenyl)methyl]-1,3-thiazole-4-carboxylicacid]"
13,≤ 31.6,"O=C(O)c1csc(Cc2cc(Cl)ccc2OCc2c(F)cc(F)cc2F)n1 [Example 13, 2-[(5-chloro-2-{[(2,4,6-trifluorophenyl)methyl]oxy}phenyl)methyl]-1,3-thiazole-4-carboxylicacid]"
14,≤ 31.6,"O=C(O)c1csc(Cc2cc(Cl)ccc2OCc2ccc(F)cc2Cl)n1 [Example 14, 2-[(5-chloro-2-{[(2-chloro-4-fluorophenyl)methyl]oxy}phenyl)methyl]-1,3-thiazole-4-carboxylicacid]"
15,≤ 31.6,"O=C(O)c1csc(Cc2cc(Cl)ccc2OCc2ccccc2Cl)n1 [Example 15, 2-[(5-chloro-2-{[(2-chlorophenyl)methyl]oxy}phenyl)methyl]-1,3-thiazole-4-carboxylicacid]"
16,≤ 31.6,"O=C(O)c1csc(Cc2cc(Cl)ccc2OCc2ccc(F)cc2F)n1 [Example 16, 2-[(5-chloro-2-{[(2,4-difluorophenyl)methyl]oxy}phenyl)methyl]-1,3-thiazole-4-carboxylicacid]"

row,IC50 [nM],Compound
1,≤ 31.6,"O=C(O)c1csc(Cc2cc(Cl)ccc2OCc2ccc(Cl)cc2Cl)n1 [Example 17, 2-[(5-chloro-2-{[(2,4-dichlorophenyl)methyl]oxy}phenyl)methyl]-1,3-thiazole-4-carboxylicacid]"
2,≤ 31.6,"O=C(O)c1csc(Cc2cc(Cl)ccc2OCc2cc(F)c(F)cc2F)n1 [Example 18, Sodium 2-[(5-chloro-2-{[(2,4,5-trifluorophenyl)methyl]oxy}phenyl)methyl]-1,3-thiazole-4-carboxylate]"
3,≤ 1000,"O=C(O)c1csc(Cc2cc(Cl)ccc2OCc2c(F)ccc(F)c2F)n1 [Example 19, Sodium 2-[(5-chloro-2-{[(2,3,6-trifluorophenyl)methyl]oxy}phenyl)methyl]-1,3-thiazole-4-carboxylate]"
4,≤ 1000,"O=C(O)c1csc(Cc2cc(Cl)ccc2OCc2ccc(F)c(F)c2F)n1 [Example 20, Sodium 2-[(5-chloro-2-{[(2,3,4-trifluorophenyl)methyl]oxy}phenyl)methyl]-1,3-thiazole-4-carboxylate]"
5,≤ 1000,"O=C(O)c1csc(Cc2cc(Cl)ccc2OCc2cc(F)c(F)c(F)c2)n1 [Example 21, Sodium 2-[(5-chloro-2-{[(3,4,5-trifluorophenyl)methyl]oxy}phenyl)methyl]-1,3-thiazole-4-carboxylate]"
6,≤ 31.6,"O=C(O)c1csc(Cc2cc(Cl)ccc2OCc2ccc(Br)cc2F)n1 [Example 22, Sodium 2-[(2-{[(4-bromo-2-fluorophenyl)methyl]oxy}-5-chlorophenyl)methyl]-1,3-thiazole-4-carboxylate]"
7,≤ 31.6,"CC(C)COc1ccc(Cl)cc1Cc1nc(C(=O)O)cs1 [Example 23, Sodium 2-({5-chloro-2-[(2-methylpropyl)oxy}phenyl}methyl)-1,3-thiazole-4-carboxylate]"
8,≤ 31.6,"O=C(O)c1csc(Cc2cc(C(F)(F)F)ccc2OCc2ccccc2)n1 [Example 24, Sodium 2-{[2-[(phenylmethyl)oxy]-5-(trifluoromethyl)phenyl]methyl}-1,3-thiazole-4-carboxylate]"
9,≤ 1000,"O=C(O)c1csc(Cc2cc(C(F)(F)F)ccc2OCc2ccc(F)cc2)n1 [Example 25, Sodium 2-{[2-{[(4-fluorophenyl)methyl]oxy}-5-(trifluoromethyl)phenyl]methyl}-1,3-thiazole-4-carboxylate]"
10,≤ 31.6,"O=C(O)c1csc(Cc2cc(C(F)(F)F)ccc2OCc2ccc(F)cc2F)n1 [Example 26, Sodium 2-{[2-{[(2,4-difluorophenyl)methyl]oxy}-5-(trifluoromethyl)phenyl]methyl}-1,3-thiazole-4-carboxylate]"
11,≤ 31.6,"O=C(O)c1csc(Cc2cc(Cl)ccc2OCC2CCCC2)n1 [Example 27, Sodium 2-({5-chloro-2-[(cyclopentylmethyl)oxy]phenyl}methyl)-1,3-thiazole-4-carboxylate]"
12,≤ 1000,"O=C(O)c1csc(Cc2cc(C(F)(F)F)ccc2OCc2ccccc2Br)n1 [Example 28, Sodium 2-{[2-{[(2-bromophenyl)methyl]oxy}-5-(trifluoromethyl)phenyl]methyl}-1,3-thiazole-4-carboxylate]"
13,≤ 31.6,"O=C(O)c1csc(Cc2cc(C(F)(F)F)ccc2OCc2ccccc2F)n1 [Example 29, Sodium 2-{[2-{[(2-fluorophenyl)methyl]oxy}-5-(trifluoromethyl)phenyl]methyl}-1,3-thiazole-4-carboxylate]"
14,≤ 31.6,"O=C(O)c1csc(Cc2cc(C(F)(F)F)ccc2OCc2ccccc2Cl)n1 [Example 30, Sodium 2-{[2-{[(2-chlorophenyl)methyl]oxy}-5-(trifluoromethyl)phenyl]methyl}-1,3-thiazole-4-carboxylate]"
15,≤ 31.6,"O=C(O)c1csc(Cc2cc(C(F)(F)F)ccc2OCc2ccc(Br)cc2)n1 [Example 31, Sodium 2-{[2-{[(4-bromophenyl)methyl]oxy}-5-(trifluoromethyl)phenyl]methyl}-1,3-thiazole-4-carboxylate]"
16,≤ 31.6,"O=C(O)c1csc(Cc2cc(C(F)(F)F)ccc2OCc2ccc(Cl)cc2F)n1 [Example 32, Sodium 2-{[2-{[(4-chloro-2-fluorophenyl)methyl]oxy}-5-(trifluoromethyl)phenyl]methyl}-1,3-thiazole-4-carboxylate]"
